Patent publication US9650348B2, “Triazines with suitable spacers for treatment and/or prevention of HIV infections” (Universiteit Antwerpen, priority 2012, dated 2017)

Experiments:
HIV-1 BaL = assay: TZM-bl antiviral assay, wild type HIV-1 Ba-L; format: cell-based; details: Human immunodeficiency virus 1, BAL; TZM-bl cells, Ba-L wild type; read-out: Antiviral activity-wild type viruses EC50 TZM-bI Ba-L
Description: (§1) The JC53-BL cell line, also known as the TZM-bl cell line (NIH AIDS Research and Reference Reagent Program, Germantown, USA), was used for the evaluation of anti-HIV activity. TZM-bl cells were cultured in Dulbecco's […] (DMEM) (Lonza) containing 10% heat-inactivated FBS and 50 μg gentamycin/mL at 37° C. in a humidified 5% CO2, 95% air environment. Twice a week the cells were treated with 0.25% trypsin-1 mM EDTA (Lonza) for 10 minutes. The resulting cell suspension was washed with an equivalent amount of TZM-bl medium and subsequently seeded in a T75 culture flask (Greiner Bio-One, Germany) at 10^6 cells in 20 mL medium.
(§2) The antiviral activity of the newly designed compounds was measured by pre-incubating ten thousand TZM-bl cells (at 10^5 cells/mL in culture medium supplemented with 30 μg/mL DEAE dextran) in a 96-well plate for 30 minutes at 37° C., 5% CO2 in the presence or absence of serial dilutions of the respective compound. Subsequently, 200 TCID50 of HIV-1 BaL was added to each well and cultures were incubated for 48 hours before quantifying luciferase activity, using a TriStar LB941 luminometer (Berthold Technologies GmbH & Co. KG, Bad Wildbad, Germany). Each condition was evaluated in triplicate wells and in at least two independent experiments. The antiviral activity of the compound was expressed as the percentage of viral inhibition compared to the untreated controls and subsequently plotted against the compound concentration.
(§3) The target compounds are evaluated for their anti-HIV-1 activity and cytotoxicity. In a primary screen, the anti-HIV activity against the laboratory strain Ba-L and against a primary subtype C isolate was determined in the TZM-bl cell line. Cellular toxicity on TZM-bl cells was evaluated using WST-1. […] In addition, the activity against NNRTI-resistant viruses (V106A, Y181C, L100I+K103N, L100I+E138K+T369I and K101E+K103N+V108VI+V179M+Y181C+E138Q) was tested. Diarylpyrimidines (DAPY) TMC120, TMC125 and TMC278 were used as reference compounds.

VI829 = assay: TZM-bl antiviral assay, wild type VI829 (primary subtype C isolate); format: cell-based, HIV-1; details: Human immunodeficiency virus 1; TZM-bl cells, VI829 wild type; read-out: Antiviral activity-wild type viruses EC50 TZM-bI VI829
Description: as §1, §2, §3

HIV-1 Ba-L [1] = assay: Antiviral activity in peripheral blood mononuclear cells (PBMC), Ba-L; format: cell-based; details: Human immunodeficiency virus 1, BAL, Ba-L wild type, read-out: Antiviral activity-wild type viruses EC50 PBMC Ba-L
HIV-1 Ba-L [2] = assay: Antiviral activity in dendritic cells / CD4+ T lymphocytes (DC/T4), Ba-L; format: cell-based; details: Human immunodeficiency virus 1, BAL; DC/T4, Ba-L wild type; read-out: Antiviral activity-wild type viruses EC50 DC/T4 Ba-L
Ba-L V106A = assay: Antiviral activity, NNRTI-resistant virus V106A; format: cell-based, HIV-1; details: for FC (V106A): Ba-L V106A; for EC50: Human immunodeficiency virus 1, BAL, read-out: Antiviral activity-NNRTI-resistant viruses EC50 Ba-L V106A
Description: as §3

VI829 Y181C = assay: Antiviral activity, NNRTI-resistant virus Y181C; format: cell-based, HIV-1; details: for EC50: Human immunodeficiency virus 1, read-out: Antiviral activity-NNRTI-resistant viruses EC50 VI829 Y181C; for FC (Y181C): VI829 Y181C
Description: as §3

VI829 L100I+K103N = assay: Antiviral activity, NNRTI-resistant virus L100I+K103N; format: cell-based, HIV-1; details: for EC50: Human immunodeficiency virus 1, read-out: Antiviral activity-NNRTI-resistant viruses EC50 VI829 L100I+K103N; for FC (L100I+K103N): VI829 L100I+K103N
Description: as §3

[3] = test system: Ba-L K101E + K103N + V108VI + V179M + Y181C + E138Q; assay: Antiviral activity, NNRTI-resistant virus K101E+K103N+V108VI+V179M+Y181C+E138Q; format: cell-based, HIV-1; details: for FC (*): Ba-L, * = K101E + K103N + V108VI + V179M + Y181C + E138Q; for EC50: Human immunodeficiency virus 1, BAL, read-out: Antiviral activity-NNRTI-resistant viruses EC50 Ba-L *
Description: (§4) The target compounds are evaluated for their anti-HIV-1 activity and cytotoxicity. In a primary screen, the anti-HIV activity against the laboratory strain Ba-L and against a primary subtype C isolate was determined in the TZM-bl cell line. Cellular toxicity on TZM-bl cells was evaluated using WST-1. Based on the primary screening results, the target compound was further evaluated for anti-HIV activity in different primary cells, including peripheral blood mononuclear cells, dendritic cells and CD4+ T lymphocytes. In addition, the activity against NNRTI-resistant viruses (V106A, Y181C, L100I+K103N, L100I+E138K+T369I and K101E+K103N+V108VI+V179M+Y181C+E138Q) was tested. Diarylpyrimidines (DAPY) TMC120, TMC125 and TMC278 were used as reference compounds.

VI829 L100I+E138K+T369I = assay: Antiviral activity, NNRTI-resistant virus L100I+E138K+T369I; format: cell-based, HIV-1; details: for FC (**): VI829, ** = L1001 + E138K + T3691
Description: as §4

in vitro = format: cell-based; details: human, Cytotoxicity CC50 TZM-bI
Excerpt: (§5) The Water Soluble Tetrazolium-1 (WST-1) Cell Proliferation Assay is a colorimetric assay for the measurement of cell proliferation and viability. The assay is based on the cleavage of the tetrazolium salt WST-1 (4-[3-(4-iodophenyl)-2-(4-nitrophenyl)-2H-5-tetrazolio]-1,3-benzene disulfonate) to a formazan dye by a complex cellular mechanism. This bioreduction is largely dependent on the glycolytic production of NAD(P)H in viable cells. Therefore, the amount of formazan dye formed correlates directly to the number of viable cells in the culture, and can be quantified by measuring the absorbance at 450 nm in a multiwell plate reader. The greater the number of viable cells, the greater the amount of formazan dye produced following the addition of WST-1. Cytotoxicity of each compound was evaluated using this WST-1 viability assay, according to the manufacturer's instructions (Roche, Vilvoorde, Belgium).
(§6) Briefly, ten thousand TZM-bl cells were seeded in a 96-well plate and cultured for 2 days in the presence of a serial dilution of compound. After this 48 h exposure, Cell Proliferation Reagent, WST-1, was added and absorbance at 450 nm was quantified after 90 min using a microplate reader (BioRad, Tokio, Japan). Each compound was tested in three replicate wells and in at least two independent experiments.
as §3

[4] = Partition coefficient (Log D), octanol/PBS; format: physicochemical; details: octanol/PBS pH 7.4
Description: 10 mM stock solution (in DMSO) was prepared.
200 μM solution (in DMSO) was prepared from 10 mM stock solution.
A set of 5-10 dilutions (in MeOH) of each compound were prepared from 200 μM solution to give final test concentrations between 1 nm and 2 μM.
MS tuning was done for each compound to find the daughter peaks using 500 nm solution.
Calibration curve was made for each compound to evaluate the linearity of our method.
Octanol was first saturated with PBS and PBS was first saturated with octanol
20 μl of a 10 mM DMSO stock solution was added to 990 μl of PBS (pH 7.4) and then 990 μl of octanol was added. The experiment was done in duplicate. After two hours of shaking at 37° C. and keeping at room temperature for 30 minutes the two layers were separated. After separation, octanol layer was diluted further with MeOH and compound was quantified in both layers by UPLC (waters). The samples were analysed in triplicate.
Where: • ConcINITIAL=Concentration of compound in the initial aqueous solution (PBS) • ConcFINAL=Concentration of compound in final aqueous phase (PBS) • Vaq=Volume of aqueous (PBS) • Voct=Volume of octanol

TZM-bl cells = assay: in vitro; format: cell-based; details: human, 48 h
Excerpt: as §5, §6, §3

Cc1cc(/C=C/C#N)cc(C)c1Nc1nc(N)nc(Nc2ccc(C#N)cc2)n1 [T2, (E)-4-(4-amino-6-(4-(2-cyanovinyl)-2,6-dimethylphenylamino)-1,3,5-triazin-2-ylamino)benzonitrile]
EC50 (HIV-1 BaL): 1.3 nM
EC50 (VI829): 1.3 nM
EC50 (HIV-1 Ba-L [1]): 5.3 nM
EC50 (HIV-1 Ba-L [2]): 0.51 nM
FC (V106A) (Ba-L V106A): 1
EC50 (Ba-L V106A): 1.9 nM
EC50 (VI829 Y181C): 2.6 nM
FC (Y181C) (VI829 Y181C): 2
EC50 (VI829 L100I+K103N): 6.8 nM
FC (L100I+K103N) (VI829 L100I+K103N): 5.2
FC (*) [3]: 18
EC50 [3]: 23 nM
FC (**) (VI829 L100I+E138K+T369I): 68
CC50 at 48 h (in vitro): 24500 nM
logD at 2 h [4]: 3.8

Cc1cc(/C=C\C#N)cc(C)c1Nc1nc(N)nc(Nc2ccc(C#N)cc2)n1 [T3, (Z)-4-(4-amino-6-(4-(2-cyanovinyl)-2,6-dimethylphenylamino)-1,3,5-triazin-2-ylamino)benzonitrile]
EC50 (HIV-1 BaL): 1.1 nM
EC50 (VI829): 1.1 nM
EC50 (HIV-1 Ba-L [1]): 6.1 nM
EC50 (HIV-1 Ba-L [2]): 0.31 nM
FC (V106A) (Ba-L V106A): 5
EC50 (Ba-L V106A): 5.2 nM
EC50 (VI829 Y181C): 12 nM
FC (Y181C) (VI829 Y181C): 11
EC50 (VI829 L100I+K103N): 123 nM
FC (L100I+K103N) (VI829 L100I+K103N): 112
FC (*) [3]: 214
EC50 [3]: 236 nM
FC (**) (VI829 L100I+E138K+T369I): 1266
CC50 at 48 h (in vitro): 30800 nM

Cc1cc(C=CC#N)cc(C)c1Nc1nc(Nc2ccc(C#N)cc2)nc(NC(C)C)n1 [T6, 4-((4-((4-(2-cyanovinyl)-2,6-dimethylphenyl)amino)-6-(isopropylamino)-1,3,5-triazin-2-yl)amino)benzonitrile]
EC50 (HIV-1 BaL): 5 nM
EC50 (VI829): 4.3 nM
EC50 (HIV-1 Ba-L [1]): 14 nM
EC50 (HIV-1 Ba-L [2]): 1.4 nM
FC (V106A) (Ba-L V106A): 6
EC50 (Ba-L V106A): 30 nM
EC50 (VI829 Y181C): 45 nM
FC (Y181C) (VI829 Y181C): 10
EC50 (VI829 L100I+K103N): 184 nM
FC (L100I+K103N) (VI829 L100I+K103N): 43
FC (*) [3]: 85
EC50 [3]: 424 nM
FC (**) (VI829 L100I+E138K+T369I): 225
CC50 at 48 h (in vitro): 24700 nM

Cc1cc(C)c(Nc2ccnc(Nc3ccc(C#N)cc3)n2)c(C)c1 [TMC120, reference compound]
EC50 (HIV-1 BaL): 2 nM
EC50 (VI829): 2 nM
EC50 (HIV-1 Ba-L [1]): 5.1 nM
EC50 (HIV-1 Ba-L [2]): 1.6 nM
FC (V106A) (Ba-L V106A): 1
EC50 (Ba-L V106A): 2.5 nM
EC50 (VI829 Y181C): 10.8 nM
FC (Y181C) (VI829 Y181C): 5
EC50 (VI829 L100I+K103N): 674 nM
activity against Efavirenz resistant viruses (L100I+K103N), in words (VI829 L100I+K103N; L100I+K103N): high nanomolar activity
FC (L100I+K103N) (VI829 L100I+K103N): 337
FC (*) [3]: >500
EC50 [3]: > 1000 nM
activity against NNRTI-resistant virus K101E+K103N+V108VI+V179M+Y181C+E138Q, in words ([3]; K101E+K103N+V108VI+V179M+Y181C+E138Q): no activity
activity against NNRTI-resistant virus L100I+E138K+T369I, in words (VI829 L100I+E138K+T369I; L100I+E138K+T369I): no activity
FC (**) (VI829 L100I+E138K+T369I): >500
CC50 at 48 h (in vitro): 2880 nM
CC50 (TZM-bl cells): < 5000 nM
logD at 2 h [4]: > 5

Cc1cc(/C=C/C#N)cc(C)c1Nc1ccnc(Nc2ccc(C#N)cc2)n1 [TMC278, Rilpivirine, reference compound]
EC50 (HIV-1 BaL): 0.72 nM
EC50 (VI829): 1 nM
EC50 (HIV-1 Ba-L [1]): 5.2 nM
EC50 (HIV-1 Ba-L [2]): 1.6 nM
FC (V106A) (Ba-L V106A): 1
EC50 (Ba-L V106A): 0.93 nM
EC50 (VI829 Y181C): 2.5 nM
FC (Y181C) (VI829 Y181C): 3
EC50 (VI829 L100I+K103N): 3.6 nM
FC (L100I+K103N) (VI829 L100I+K103N): 4
FC (*) [3]: 38
EC50 [3]: 27 nM
FC (**) (VI829 L100I+E138K+T369I): 130
CC50 at 48 h (in vitro): < 10000 nM
CC50 (TZM-bl cells): 7740 nM
logD at 2 h [4]: 4
